Source: a melting point compilation (Tetko et al.; mined from patent text by program, amines drawn as free bases though some values may be those of a salt)

| Compound | melting point |
| --- | --- |
| O=C(Nc1ccc(-n2nc(C(F)(F)F)cc2C(F)(F)F)cc1)c1cc(F)ccc1F | 168 to 169 °C |
| O=C(O)c1ccc(CCC(=O)c2ccccc2)cc1 | 145 to 147 °C |
| O=C(Cc1ccccc1Br)NCC1OC(n2cc(Br)c(=O)[nH]c2=O)CC1O (centres undefined) | 222 to 223 °C |
| Cc1cc([N+](=O)[O-])ccc1N1CCOCC1=O | 113 to 114 °C |
| CCCCS(=O)(=O)On1nnc2ccc(Cl)cc21 | 72 to 74 °C |
| CC(O)c1cccc(NC(=O)NCC(=O)N(c2ccccc2)C(C)C(=O)N2CCCC(C)(C)C2)c1 (mixture of isomers) | 186 °C |
| CS(=O)(=O)Nc1ccc(N2CCC(O)CC2)cc1 | 126 to 129 °C |
| CCC1(CCCCN2CCN(c3ccc(Cl)cc3)CC2)C(=O)Nc2c(Cl)cc(Cl)cc21 (centres undefined) | 152 to 154 °C |
| CCOC(OCC)c1cc(NC(c2ccccc2)(c2ccccc2)c2ccccc2)c(F)c(C2CCCO2)n1 (centres undefined) | 149 to 150 °C |
| O=C1NC(=O)C(Nc2ccc(CCNCC(O)COc3ccc(OCc4ccccc4)cc3)cc2)S1 (centres undefined) | 152 °C |
| COc1ccc(-c2cnc(C=NN3CC(=O)NC3=O)o2)cc1 | 291 to 294 °C |
| CS(=O)(=O)c1nnc(F)s1 | 65 °C |
| CCCOc1cc2ccccc2c2c(=O)c(-c3ccc(OC)cc3)c(C)[nH]c12 | 204 to 206 °C |
| COc1ccccc1CN1N=C(c2ccc(OC)c(OC)c2)[C@@H]2CCCC[C@@H]2C1=O (relative stereo) | 96 to 99 °C |
| CS(=O)CCc1nc2nc[nH]c2c2nc(-c3ccc(-c4ccccc4)cc3)nn12 (centres undefined) | 188 °C |
| Nc1nc(-c2cccc(C(F)(F)F)c2)nc2nc(-c3ccco3)nn12 | 296 to 298 °C |
| COc1cc2c(cc1OC)-c1cc(Nc3c(C)cccc3C)nc(=O)n1CC2 | 297 to 299 °C |
| COC(=O)C(Oc1ccc(F)cc1)c1ccc(Sc2ccc(Cl)cc2)cc1 (centres undefined) | 84.5 to 87 °C |
| CCCCNC(=O)CP(=O)(O)O | 115 to 125 °C |
| CC(=O)OC(C)c1ccccc1CS(N)(=O)=O (centres undefined) | 135 to 140 °C |

| Compound | melting point |
| --- | --- |
| COP(=O)(OC)C(O)[C@H](CC1CCCCC1)NC(=O)[C@H](CC(C)C)NC(=O)OCc1ccccc1 (some centres undefined) | 151 °C |
| CC(C)(C)Nc1c(NCc2cc(Cl)ccc2Cl)c(=O)c1=O | 236 °C |
| CCOCCN(SC(Cl)(Cl)Cl)C(=N)C(Cl)(Cl)Cl | 65 to 66 °C |
| O=C(O)CCCCCCC1=C(C=Cc2ccccc2)C(=O)CC1 | 118 to 120 °C |
| CC=C1CCC2C3CCC4CC(O)C(OCC)CC4(C)C3C(=O)CC12C (centres undefined) | 172 to 178 °C |
| C#CCCOc1cc(N2C(=O)CC(C(F)(F)F)CC2=O)c(F)cc1Cl | 89 to 91 °C |
| CCOC(=O)C=Cc1ccc(OC)c(OC)c1 | 53 to 55 °C |
| O=C(c1ccccc1)N1CCc2[nH]c3ccc(-c4ccccc4)cc3c2CC1 | 140 to 145 °C |
| O=S(=O)(NCC(O)(Cn1cncn1)c1ccc(Cl)cc1Cl)c1ccc(Cl)cc1 (centres undefined) | 182 to 183 °C |
| COc1cccc(OC)c1-c1ccccc1P(C1CCCCC1)C1CCCCC1 | 163 to 165 °C |
| CC(C)(O)C(O)c1ccc(-c2ccc(C(CC3CCOCC3)c3ccc(S(C)(=O)=O)c(Cl)c3)[nH]2)nc1 (centres undefined) | 138 to 140 °C |
| Cc1ccc(OC2CCN(C(=O)C(=O)O)CC2)cc1 | 109 to 112 °C |
| CC(c1cccnc1)n1c(=O)[nH]c2cc(Cl)ccc21 (centres undefined) | 190 °C |
| NC1=NN(c2nc3ccccc3s2)C(c2ccc(Cl)cc2)C1 (centres undefined) | 273 to 275 °C |
| COC(=O)c1ccc(/C=C/C(=O)O)c(Cl)c1 | 221 °C |
| O=C(NCCSCc1cccc(Cl)c1)c1c(F)cccc1F | 41 to 43 °C |
| O=C1c2ccc([N+](=O)[O-])cc2C(=O)c2c(O)ccc(O)c21 | 226 to 228 °C |
| CCCCc1nc2ncncc2n1Cc1ccc2oc(-c3ccccc3-c3nnn[nH]3)c(Br)c2c1 | 211 to 213 °C |
| CN(C)c1ccc2c(c1)CN(c1cccc(-c3cc(Nc4ccncn4)c(=O)n(C)c3)c1CO)C2=O | 206 to 208 °C |
